Values after ≈ are worked out from the molar mass of the structure shown.
Test system: Streptococcus pneumoniae
Experiment: Antibacterial activity against tetracycline-susceptible Streptococcus pneumoniae GMRS06 harboring one-nucleotide insertion stop codon in […] gene
Format: functional

CN(C)[C@@H]1C(O)=C(C(N)=O)C(=O)[C@@]2(O)C(O)=C3C(=O)c4c(O)cccc4[C@@](C)(O)[C@H]3C[C@@H]12 [TETRACYCLINE]
MIC: 0.25 µg/mL (≈ 0.563 µM)

From ChEMBL document CHEMBL1152986, “The macrolide resistance genes erm(B) and mef(E) are carried by Tn2010 in dual-gene Streptococcus pneumoniae isolates belonging to clonal complex CC271” (2007)
